Reference: US20210355235A1, “Compositions and Methods For Treating Cancer with Anti-Renalase antibodies and Anti-PD1 antibodies” (YALE UNIVERSITY, priority 2017, published 2021)

Key:
renal ischemia = renal ischemia and reperfusion in WT mice; format: in vivo, mouse; settings: 30 minutes of renal ischemia and reperfusion
Procedure: FIG. 3 is a chart showing that ERK or AKT inhibition abrogates protective effect of renalase peptide: WT mice subjected to sham surgery or to 30 minutes of renal ischemia and reperfusion; RP-[…] or vehicle (saline) injected 10 minutes before renal ischemia. ERK inhibitor PD98059 or the PI3K/AKT inhibitor wortmannin abrogated RP-[…]'s protective effect.

MiaPaCa2 cells = settings: pretreatment before rRNLS 30 μg/ml

SMILES	effect on RP-H220's protective effect (renal ischemia)	effect on rRNLS' protective effect (MiaPaCa2 cells)
COc1cccc(-c2cc(=O)c3ccccc3o2)c1N [PD98059]	abrogated	
N#CC(=C(/N)Sc1ccccc1N)/C(C#N)=C(\N)Sc1ccccc1N [U0126]		abrogated
